Test results: patent US10316050B2, “PT (IV) complexes containing 4,4′-disubstituted-2,2′-bipyridyl and their use in cancer therapy” (THE BOARD OF REGENTS OF THE NEVADA SYSTEM OF HIGHER …, priority 2014, dated 2019)
Like-named read-outs stand apart in the source and are kept apart here. Each block holds one compound with its values, some of them ahead of it.

Tests used:
Format in all cases: cell-based, human
A549 lung cancer cells = experiment: MTS cell viability assay, A549; conditions: for EC50: read-out: EC50 (effective concentration that resulted in 50% cell viability)
How it was run: (§1)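 Cells grown in MEM with 10% FBS and 25 mM HEPES (pH 7.4), seeded at 2-3.5×10³/well and grown 2 days to ~50% confluence. Exposed to compounds for 1 h, washed, then 2 days in fresh medium; or 48 h continuous. MTS 4 h, absorbance 490 nm; viability as percent of solvent control.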

H520 lung cancer cells = experiment: MTS cell viability assay, H520; conditions: read-out: EC50 (effective concentration that resulted in 50% cell viability)
How it was run: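 Two exposure schemes were used: a 1 h treatment followed by washing and 2 days' regrowth, and a 48 h continuous treatment. Viability was then measured colorimetrically with MTS reagent (4 h, 490 nm) relative to solvent controls.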

[1] = system: DU145 prostate cancer cells; conditions: for EC50: read-out: EC50 (effective concentration that resulted in 50% cell viability)
How it was run: (§2)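 SK-BR-3 cells grown in MEM, DU145 and PC-3 cells in RPMI-1640, each with 10% FBS and 25 mM HEPES pH 7.4, plated 2 days to ~50% confluence. Exposure to increasing Pt complex or cisplatin/carboplatin concentrations for 1 h (washed, then 2 days recovery) or 48 h continuous. MTS absorbance at 490 nm after 4 h; viability as percent of control.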

[2] = system: PC-3 prostate cancer cells; experiment: MTS cell viability assay, PC-3; conditions: for EC50: read-out: EC50 (effective concentration that resulted in 50% cell viability)
How it was run: as §2

[3] = system: HCC38 breast cancer cells; experiment: MTS cell viability assay, HCC38; conditions: read-out: EC50 (effective concentration that resulted in 50% cell viability)
How it was run: as §1

[4] = system: MCF-7 breast cancer cells; experiment: MTS cell viability assay, MCF-7; conditions: for EC50: read-out: EC50 (effective concentration that resulted in 50% cell viability)
How it was run: as §1

[5] = system: MDA-MB-231 breast cancer cells; experiment: MTS cell viability assay, MDA-MB-231; conditions: read-out: EC50 (effective concentration that resulted in 50% cell viability)
How it was run: as §1

[6] = system: SK-BR-3 breast cancer cells; experiment: MTS cell viability assay, SK-BR-3; conditions: for EC50: read-out: EC50 (effective concentration that resulted in 50% cell viability)
How it was run: as §2

[7] = system: T-47D breast cancer cells; experiment: MTS cell viability assay, T-47D
How it was run: as §1

[8] = system: ZR-75-1 breast cancer cells; experiment: MTS cell viability assay, ZR-75-1; conditions: read-out: EC50 (effective concentration that resulted in 50% cell viability)
How it was run: as §1

[9] = MDA-MB-231, 1 h treatment, Table 3
[10] = SK-BR-3, 1 h treatment, Table 3
[11] = 1 h treatment, Table 3, read-out: EC50 (effective concentration that resulted in 50% cell viability)
[12] = 48 h, Table 5, read-out: EC50 (effective concentration that resulted in 50% cell viability)
[13] = ZR-75-1, 1 h treatment, Table 3

Compound: [Pt(IV)Cl2(OAc)2(4,4′-dibutoxy-2,2′-bipyridine)] [Pt(IV)-4C]
effect on cell viability (in words) (A549 lung cancer cells; A549, 1 hour treatment, at the concentrations tested (FIG. 8E)): did not have any effect
EC50 (A549 lung cancer cells; A549, 1 h treatment, Table 3): > 25 µM
EC50 (A549 lung cancer cells; A549, 48 h, Table 5): 14 ± 1 µM
EC50 (H520 lung cancer cells; H520, 1 h treatment, Table 3): 13 ± 5 µM
EC50 (H520 lung cancer cells; H520, 48 h, Table 5): 2.2 ± 0.1 µM
EC50 ([1]; DU145, 1 h treatment, Table 3): 8 ± 7 µM
EC50 ([1]; DU145, 48 h, Table 5): 0.9 ± 0.2 µM
EC50 ([2]; PC-3, 1 h treatment, Table 3): 5 ± 3 µM
EC50 ([2]; PC-3, 48 h, Table 5): 1.1 ± 0.4 µM
EC50 ([3]; HCC38, 1 h treatment, Table 3): 17 ± 3 µM
EC50 ([3]; HCC38, 48 h, Table 5): 2.1 ± 0.2 µM
effect on cell viability (in words) ([4]; MCF-7, 1 hour treatment, at the concentrations tested (FIG. 8F)): did not have any effect
EC50 ([4]; MCF-7, 1 h treatment, Table 3): > 25 µM
EC50 ([4]; MCF-7, 48 h, Table 5): 2.2 ± 0.1 µM
EC50 [5, 9]: 2.8 ± 0.1 µM
EC50 ([5]; MDA-MB-231, 48 h, Table 5): 1 ± 0.2 µM
EC50 [6, 10]: 4 ± 0.7 µM
EC50 ([6]; SK-BR-3, 48 h, Table 5): 0.44 ± 0.02 µM
EC50 [7, 11]: 10 ± 1 µM
EC50 [7, 12]: 0.33 ± 0.07 µM
EC50 [8, 13]: 2.9 ± 0.3 µM
EC50 ([8]; ZR-75-1, 48 h, Table 5): 0.7 ± 0.2 µM

EC50 (A549 lung cancer cells; A549, 1 h treatment, Table 2): 900 ± 200 µM
EC50 (A549 lung cancer cells; A549, 1 h treatment, Table 3): 900 ± 200 µM
EC50 (A549 lung cancer cells; A549, 48 h, Table 5): 500 ± 100 µM
EC50 (A549 lung cancer cells; A549, 48 h treatment, Table 4): 500 ± 100 µM
EC50 (H520 lung cancer cells; H520, 1 h treatment, Table 2): 200 ± 17 µM
EC50 (H520 lung cancer cells; H520, 1 h treatment, Table 3): 200 ± 17 µM
EC50 (H520 lung cancer cells; H520, 48 h, Table 5): 24 ± 2 µM
EC50 (H520 lung cancer cells; H520, 48 h treatment, Table 4): 24 ± 2 µM
EC50 ([1]; DU145, 1 h treatment, Table 2): 400 ± 100 µM
EC50 ([1]; DU145, 1 h treatment, Table 3): 400 ± 100 µM
EC50 ([1]; DU145, 48 h, Table 5): 64 ± 8 µM
EC50 ([1]; DU145, 48 h treatment, Table 4): 64 ± 8 µM
EC50 ([2]; PC-3, 1 h treatment, Table 2): 200 ± 20 µM
EC50 ([2]; PC-3, 1 h treatment, Table 3): 200 ± 20 µM
EC50 ([2]; PC-3, 48 h, Table 5): 30 ± 1 µM
EC50 ([2]; PC-3, 48 h treatment, Table 4): 30 ± 1 µM
EC50 ([3]; HCC38, 1 h treatment, Table 2): 300 ± 30 µM
EC50 ([3]; HCC38, 1 h treatment, Table 3): 300 ± 30 µM
EC50 ([3]; HCC38, 48 h, Table 5): 30 ± 8 µM
EC50 ([3]; HCC38, 48 h treatment, Table 4): 30 ± 8 µM
EC50 ([4]; MCF-7, 1 h treatment, Table 2): 900 ± 60 µM
EC50 ([4]; MCF-7, 1 h treatment, Table 3): 900 ± 100 µM
EC50 ([4]; MCF-7, 48 h, Table 5): 34 ± 1 µM
EC50 ([4]; MCF-7, 48 h treatment, Table 4): 35 ± 1 µM
EC50 ([5]; MDA-MB-231, 1 h treatment, Table 2): 50 ± 4 µM
EC50 [5, 9]: 50 ± 4 µM
EC50 ([5]; MDA-MB-231, 48 h, Table 5): 21 ± 3 µM
EC50 ([5]; MDA-MB-231, 48 h treatment, Table 4): 21 ± 3 µM
EC50 ([6]; SK-BR-3, 1 h treatment, Table 2): 420 ± 80 µM
EC50 [6, 10]: 420 ± 80 µM
EC50 ([6]; SK-BR-3, 48 h, Table 5): 23 ± 8 µM
EC50 ([6]; SK-BR-3, 48 h treatment, Table 4): 23 ± 6 µM
EC50 ([7]; 1 h treatment, Table 2, read-out: EC50 (effective concentration that resulted in 50% cell viability)): 900 ± 100 µM
EC50 [7, 11]: 900 ± 100 µM
EC50 [7, 12]: 35 ± 6 µM
EC50 ([7]; 48 h treatment, Table 4, read-out: EC50 (effective concentration that resulted in 50% cell viability)): 35 ± 6 µM
EC50 ([8]; ZR-75-1, 1 h treatment, Table 2): 260 ± 10 µM
EC50 [8, 13]: 260 ± 10 µM
EC50 ([8]; ZR-75-1, 48 h, Table 5): 30 ± 8 µM
EC50 ([8]; ZR-75-1, 48 h treatment, Table 4): 30 ± 8 µM
Compound: [NH2][Pt]([NH2])([Cl])[Cl] [CDDP, Cisplatin, reference compound]
effect on cell viability (in words) ([1]; DU145, 1 hour treatment (FIG. 8A, top), up to 1 mM carboplatin, 100 μM Pt(IV)-1C, 50 μM Pt(IV)-2C): concentration dependent decrease in cell viability
anti-proliferative activity compared to cisplatin (in words) ([1]; DU145, one and 48 hours treatment (FIG. 8H)): concentration dependent decreased in cell viability
anti-proliferative activity compared to cisplatin (in words) ([2]; PC-3, one and 48 hours treatment (FIG. 8I)): concentration dependent decreased in cell viability
anti-proliferative activity compared to cisplatin (in words) ([6]; SK-BR-3, one and 48 hours treatment (FIG. 8G)): concentration dependent decreased in cell viability

Compound: CC(=O)[O][Pt]([Cl])([Cl])[O]C(C)=O.CCCCCOc1ccnc(-c2cc(OCCCCC)ccn2)c1 [Pt(IV)-5C, [Pt(IV)Cl2(OAc)2(4,4′-dipentoxy-2,2′-bipyridine)]]
EC50 (A549 lung cancer cells; A549, 1 h treatment, Table 3): 6.6 ± 0.3 µM
EC50 (A549 lung cancer cells; A549, 48 h, Table 5): 2.2 ± 0.1 µM
EC50 (H520 lung cancer cells; H520, 1 h treatment, Table 3): 3 ± 1 µM
EC50 (H520 lung cancer cells; H520, 48 h, Table 5): 1 ± 0.3 µM
EC50 ([1]; DU145, 1 h treatment, Table 3): 1 ± 1 µM
EC50 ([1]; DU145, 48 h, Table 5): 0.34 ± 0.02 µM
EC50 ([2]; PC-3, 1 h treatment, Table 3): 1.7 ± 0.2 µM
EC50 ([2]; PC-3, 48 h, Table 5): 0.5 ± 0.2 µM
EC50 ([3]; HCC38, 1 h treatment, Table 3): 3 ± 1 µM
EC50 ([3]; HCC38, 48 h, Table 5): 2.1 ± 0.3 µM
EC50 ([4]; MCF-7, 1 h treatment, Table 3): 2.9 ± 0.13 µM
EC50 ([4]; MCF-7, 48 h, Table 5): 2 ± 0.1 µM
EC50 [5, 9]: 1.8 ± 0.1 µM
EC50 ([5]; MDA-MB-231, 48 h, Table 5): 0.26 ± 0.01 µM
EC50 [6, 10]: 1.3 ± 0.6 µM
EC50 ([6]; SK-BR-3, 48 h, Table 5): 0.3 ± 0.03 µM
EC50 [7, 11]: 2.3 ± 0.3 µM
EC50 [7, 12]: 0.248 ± 0.001 µM
EC50 [8, 13]: 1.6 ± 0.1 µM
EC50 ([8]; ZR-75-1, 48 h, Table 5): 0.55 ± 0.07 µM
